How the values were obtained:
[1] = tested on: platelets; assay: Platelet stimulation and release of freeMitos, mitoMPs and MPs (hs-FCM); type: cell-based, human; details: platelets stimulated 4 hours at room temperature, vs supernatant from resting platelets, n=4
Text: (§1) A forward scatter (FSC) coupled to a photomultiplier tube (PMT) “small particles option” (FSC-PMT) (rather than the usual diode) with a 488-nm solid state, 100-mW output blue laser (rather than the conventional 20 mW), a 633-nm HeNe, 20-mW output red laser, and a 405-nm solid state diode, 50-mW output violet laser were mounted on the BD FACS Canto II Special Order Research Product used for all our studies (BD Biosciences). The chosen parameters were optimal to detect particles from 100 to 3 500 nm simultaneously on the FSC-PMT.
(§2) Platelets were labeled with MitoTracker Deep Red™ and PKH67 Green Fluorescent Cell Linker as described above. Platelets were washed and then were left nonactivated or activated using heat-aggregated immunoglobulin (Ig)G (HA-IgG), 1 mg/mL; thrombin, 0.5 U/mL; collagen, 5 μg/mL; for 4 hours at room temperature. Platelets ([…]) were then diluted into […] phosphate-buffered saline (PBS) and analyzed by flow cytometry. For extracellular mitochondria release experiments, platelets were treated with cytochalasin B ([…]; Sigma-Aldrich), cytochalasin D ([…]; Sigma-Aldrich), cytochalasin E ([…]; Cayman Chemical), latrunculin A ([…]; Cayman Chemical), or nocodazole ([…]; Sigma-Aldrich). To process the data quantitatively, 100 000 polystyrene microspheres ([…] diameter; Polysciences) were added to each tube, and 1000 microspheres were acquired.

[2] = tested on: human neutrophils; assay: NET quantification; type: cell-based
Method: Activated human neutrophils (5×10^6 cells/ml) were incubated in the presence of labeled mitochondria (5×10^5 mitochondria/ml, MitoTracker® Deep Red, 100 nm) and sPLA2-IIA (0.1 μg/ml) or diluent (PBS) for 2 h at 37° C. Cells were then fixed with 2% PFA and DNA staining was performed with Hoestch 33342 (1 μg/ml, Invitrogen). Cells were cytospinned on a slide at 500 RPM for 3 min. NET formation (%) was determined by the following equation: (NETs/PMN counted)*100. Preliminary experiments confirmed that mtDNA is readily distinguished from neutrophils NETs.

[3] = tested on: thrombin-activated platelets; assay: Extracellular mitochondria release from thrombin-activated platelets with cytoskeleton inhibitors (hs-FCM); type: cell-based, human; details: addition of actin or tubulin polymerization inhibitors, n=4
Text: as §1, §2

[4] = tested on: human neutrophils; assay: Stimulation of neutrophils for leukotriene generation (5-LO products, HPLC); type: cell-based; details: human neutrophils with extracellular mitochondria and sPLA2-IIA; pyrrophenone 100 nM
Method: Human neutrophils were primed and stimulated for leukotriene biosynthesis as previously described (Cloutier et al. 2013, Flamand et al. 2006). To evaluate sPLA2-IIA mediated release of arachidonic acid, cPLA2α inhibitor pyrrophenone (100 nM) was added 5 min before stimulation. Stimulation was initiated by the addition of 5 μl of pre-treated mitochondria, or control, to prime neutrophils. The reaction was stopped by the addition of 500 μl of cold MeOH:CH3CN (1:1) containing 12.5 ng of prostaglandin B2 as internal standard. Samples were then processed and analyzed by reversed-phase high performance liquid chromatography using on-line extraction as previously described (Borgeat et al. 1990).

[5] = tested on: C57BL/6N mice; assay: Air pouch model, cytokine production; type: in vivo, mouse; details: injected into the air pouch of C57BL/6N mice, 4 hours; n=7
Method: Briefly, sterile air was subcutaneous injected on days 0 and 3. Tumor necrosis factor-α (50 ng) was injected into the pouch on day 6. On day 7, mitochondrial membrane hydrolysis products ([…] of 5×10^8 mitochondria treated with sPLA2-IIA), diluent (PBS), sPLA2-IIA, or mitochondria alone were injected in the air pouch. After 4 hours, the air pouch was washed with 1.2 mL PBS. Cytokines were quantified using the BD Cytometric Bead Array System (CBA) (BD Biosciences) by flow cytometry on a BD FACS Canto II and analyzed using FCAP Array Software v3.0.

[6] = tested on: mitochondria; assay: Scanning electron microscopy of mitochondria incubated with sPLA2-IIA; parameters: species or system mouse; details: scanning electron micrographs
Method: (§3) Samples were fixed with 2.5% glutaraldehyde for at least 24 h then processed for standard dehydration. Briefly, samples were first washed (3×10 min) with sodium cacodylate buffer (0.1 M, pH 7.3) then fixed with osmium tetroxide (1% in sodium cacodylate buffer) for 90 min. Samples were washed again (3×10 min) in sodium cacodylate buffer and subsequently processed for alcohol dehydration steps (50, 70, 95 and 100% EtOH, 10 min each steps). Samples were then dipped in 100% EtOH for 40 and 10 min, and air-dried overnight. Samples were then coated with palladium and observed with a JEOL 6360LV scanning electron microscope (Tokyo, Japan).

[7] = tested on: mitochondrial membranes; assay: Mass spectrometry of lysophospholipids and fatty acids released from mitochondrial membranes by sPLA2-IIA; type: biochemical, mouse; details: 0.1 and 1 μg/ml sPLA2-IIA, 37° C., 0.5 and 6 h
Method: Mitochondria were incubated in the presence of 0.1 μg/ml and 1 μg/ml of human recombinant sPLA2-IIA at 37° C. for 0.5 and 6 h. Mitochondria were also incubated in the absence of sPLA2-IIA to determine the content of basal free fatty acid. Following incubation, the reaction was stopped with the addition of 20 mM of EGTA. Lysophospholipid analysis by mass spectrometry was carried out as described (Bollinger et al. 2010). Samples of sPLA2-IIA-treated mitochondria (200 μl) was mixed with 800 μl of chloroform/methanol (2/1) followed by the addition of 15 μl of internal standard mixture (Bollinger et al. 2010 B). Samples were extracted as described and analyzed by combined liquid chromatography/tandem mass spectrometry (Bollinger et al. 2010). Fatty acids were analyzed by conversion to their AMPP amide derivatives and then analyzed by combined liquid chromatography/tandem mass spectrometry.

[8] = tested on: mitochondria; assay: sPLA2-IIA binding to mitochondria (flow cytometry, anti-TOM22 co-elution and immunoblot); parameters: species or system mouse; details: 30 min on ice, 5 mM CaCl2
Method: Mitochondria (10^6) from mouse liver were labeled with 100 nM of MitoTracker® Deep Red and incubated with 10 ng of sPLA2-IIA Alexa Fluor 488 (final volume 10 μl) in HBSS with 5 mM of CaCl2 for 30 min on ice. Samples were diluted and the presence of sPLA2-IIA Alexa Fluor 488 on fluorescent mitochondria was analyzed by flow cytometry.
Interaction between mitochondria and sPLA2-IIA was also assessed by immunolabeling and co-elution. Unstained mouse liver mitochondria (10^7) in HBSS with 5 mM CaCl2 were incubated with 250 ng of sPLA2-IIA (final volume 100 μl) for 30 min on ice. Anti-TOM22 microbeads labeling was then performed as described above and processed on a magnet for mitochondria isolation. Mitochondria were then pelleted and lysed in 1× lysis buffer. Samples were electrophoresed, transferred onto membranes and incubated in 0.2% milk/TBS-Tween solution containing rabbit anti-sPLA2-IIA antibody (1/1000, Cayman Chemical) for 48 h at 4° C. The membrane was washed, treated with Peroxidase-AffiniPure anti-rabbit-IgG (Jackson ImmunoResearch) and reactive proteins were visualized by chemiluminescence (Perkin Elmer).

[9] = tested on: mitochondria; assay: Mitochondrial DNA release after incubation with sPLA2-IIA (Sytox Green); type: biochemical, mouse; details: 0.2 mg/mL, 30 minutes at 37° C., n=6
Method: Mitochondria were seeded at 5×10^8 mitochondria/mL (Tyrode Buffer, pH 7.4, +5 mM CaCl2) in a flat bottom well plate (Costar, Corning). Human recombinant sPLA2-IIA (5 μg/ml) or diluent (PBS) was added and samples were then incubated for 30 min at 37° C. Nucleic acid stain Sytox® Green (2.5 μM, Invitrogen) was added to the mix and incubated for 10 min at room temperature. Fluorescence was obtained with a Tecan apparatus. To calculate the percentage of mitochondrial DNA released in the milieu, Triton X-100 (0.1% PBS) lysis of an equivalent amount of mitochondria (5×10^8 mitochondria/ml) was performed, to determine the total amount of mitochondrial DNA present per well.

[10] = tested on: freshly isolated human neutrophil; assay: Scanning electron microscopy of human neutrophils with mitochondria and sPLA2-IIA; type: cell-based; details: mitochondria with human neutrophils, 30-minute incubation with sPLA2-IIA; n=3
Method: as §3

## CCCCCCCCCCCCCC(=O)O[C@@H]1[C@@H](C)[C@@]2(O)[C@@H](C=C(CO)C[C@]3(O)C(=O)C(C)=C[C@@H]23)[C@@H]2C(C)(C)[C@]12OC(C)=O [PMA, phorbol 12-myristate 13-acetate]
[1]
  release of extracellular freeMitos, mitoMPs and MPs: trigger the release

## CCCCC/C=C\C/C=C\C/C=C\C/C=C\CCCC(=O)O [arachidonic acid]
[2]; human neutrophils
  inducing NETosis (hydrolytic products derived from sPLA2-IIA activity): highly potent

## C=C1[C@@H](C)[C@H]2[C@H](Cc3ccccc3)NC(=O)[C@]23OC(=O)/C=C/[C@H](O)CCC[C@@H](C)C/C=C/[C@H]3[C@@H]1O [cytochalasin B]
[3]
  Mitochondrial release (freeMito, mitoMPs, MPs) from thrombin-activated platelets: significantly reduced

## C=C1[C@@H](C)[C@H]2[C@H](Cc3ccccc3)NC(=O)[C@]23[C@H](OC(C)=O)/C=C/[C@@](C)(O)C(=O)[C@@H](C)C/C=C/[C@H]3[C@@H]1O [cytochalasin D]
[3]
  Mitochondrial release (freeMito, mitoMPs, MPs) from thrombin-activated platelets: significantly reduced

## C[C@H]1C/C=C/[C@H]2[C@@H]3O[C@]3(C)[C@@H](C)[C@H]3[C@H](Cc4ccccc4)NC(=O)[C@]32OC(=O)O/C=C/[C@@](C)(O)C1=O [cytochalasin E]
[3]
  Mitochondrial release (freeMito, mitoMPs, MPs) from thrombin-activated platelets: significantly reduced

## C/C1=C/C(=O)O[C@@H]2C[C@@H](CC[C@H](C)/C=C\C=C\CC1)O[C@@](O)([C@@H]1CSC(=O)N1)C2 [latrunculin A]
[3]
  Mitochondrial release (freeMito, mitoMPs, MPs) from thrombin-activated platelets: significantly reduced

## O=C1NC(=O)/C(=C/c2ccc(C(=O)NC[C@@H]3C[C@@H](SC(c4ccccc4)(c4ccccc4)c4ccccc4)CN3C(=O)c3ccccc3C(=O)c3ccc(F)cc3F)cc2)S1 [pyrrophenone]
[4]
  LTB4 production (5-LO products) by neutrophils: takes place even in presence

## collagen
[1]
  release of extracellular freeMitos, mitoMPs and MPs: trigger the release

## thrombin
[1]
  release of extracellular freeMitos, mitoMPs and MPs: trigger the release

B1: sPLA2-IIA: human recombinant secreted phospholipase A2 group IIA (protein, UniProt P14555 21-144, looked up)
Phospholipase A2, membrane …: NLVNFHRMIKLTTGKEAALSYGFYGCHCGVGGRGSPKDATDRCCVTHDCCYKRLEKRGCGTKFLSYKFSNSGSRITCAKQDSCRSQLCECDKAAATCFARNKTTYNKKYQYYSNKHCRGSTPRC
[2]; human neutrophils with mitochondria, sPLA2-IIA 0.1 μg/ml, 2 h at 37° C.
  NET formation by mitochondria: significantly enhances
[5]
  production of IL-1b and IL-6: modest cytokine production
[6]
  mitochondrial structural integrity: severely affects mitochondrial structural integrity
[7]
  release of lysophospholipids and free fatty acids from mitochondria: release of various lysophospholipids and free fatty acids
[8]
  binding of sPLA2-IIA to mitochondria: binds mitochondria
[4]
  LTB4 production (5-LO products) by neutrophils: copious amounts
[9]
  mtDNA extrusion: amplified
[10]
  neutrophil structural change: 29.2±2.11%

Reference: US9945853B2, “Extracellular mitochondrial components for detecting inflammatory reactions and conditions” (UNIVERSITE LAVAL, priority 2013, dated 2018)
